From US7902354B2, “Lapachone compounds and methods of use thereof” (ArQule, Inc., priority 2006, dated 2011)
Read-outs that look alike come from different tables or passages of the source.

Tests used:
Format in all cases: cell-based
[1] = tested on: DLD-1 human colon carcinoma cells; experiment: MTS cell viability assay, DLD-1 human colon carcinoma cells; conditions: read-out: IC50 Values, Cancerous Cells, Colon DLD-1
[2] = tested on: K-562 human leukemia cells; experiment: MTS cell viability assay, K-562 human leukemia cells; conditions: read-out: IC50 Values, Cancerous Cells, Leukemia K-562
[3] = tested on: A549 human lung carcinoma cells; experiment: MTS cell viability assay, A549 human lung carcinoma cells; conditions: read-out: IC50 Values, Cancerous Cells, Lung A549
[4] = tested on: PACA-2 human pancreatic carcinoma cells; experiment: MTS cell viability assay, PACA-2 human pancreatic carcinoma cells; conditions: read-out: IC50 Values, Cancerous Cells, Pancreas PACA-2
[5] = tested on: NCM-460 normal colon epithelial cells; experiment: MTS cell viability assay, NCM-460 normal colon epithelial cells; conditions: for IC50: Homo sapiens, read-out: IC50 Values, Normal Cells, Colon NCM-460
[6] = tested on: DU-145 human prostate carcinoma cells; experiment: MTS cell viability assay, DU-145 human prostate carcinoma cells; conditions: read-out: IC50 Values, Cancerous Cells, Prostate DU-145
[7] = DLD-1, 4 h compound incubation, MTS
[8] = K562, K-562, 4 h compound incubation, MTS
[9] = A549, 4 h compound incubation, MTS
[10] = PACA-2, 4 h compound incubation, MTS
[11] = NCM460, NCM-460, 4 h compound incubation, MTS
[12] = DU-145, 4 h compound incubation, MTS

Row | SMILES | IC50 [1, 7] [µM] | IC50 [2, 8] [µM] | IC50 [3, 9] [µM] | IC50 [4, 10] [µM] | IC50 [5, 11] [µM] | Fold Selectivity (NCM-460/DLD1) ([5]; ratio of IC50 NCM-460 / DLD1) | IC50 [6, 12] [µM] | IC50 ([1]; DLD-1, 4 h) [µM] | IC50 ([2]; K562, 4 h) [µM] | IC50 ([3]; A549, 4 h) [µM] | IC50 ([4]; PaCa-2, 4 h) [µM] | Fold Selectivity (NCM-460/DLD1) [5] | IC50 ([5]; NCM460, 4 h) [µM] | IC50 ([6]; DU-145, 4 h) [µM]
1 | COC(=O)C(=O)N1CCC2(CC1)CSC1=C(O2)c2ccccc2C(=O)C1=O [Compound 52, methyl (5,6-dioxo-5,6-dihydro-1′H-spiro[naphtho[1,2-b][1,4]oxathiine-2,4′-piperidine]-1′-yl)(oxo)acetate] | 4.15 | 2.71 | 14.4 | 3.92 | 10.1 | 2.4 | 4.49 |  |  |  |  |  |  | 
2 | Cc1ccc(NC(=O)N2CCC3(CC2)CSC2=C(O3)c3ccccc3C(=O)C2=O)cn1 [Compound 91, N-(6-methylpyridin-3-yl)-5,6-dioxo-5,6-dihydro-1′H-spiro[naphtho[1,2-b][1,4]oxathiine-2,4′-piperidine]-1′-carboxamide] | 1.6 | 1.45 | 10.2 | 1.35 | 9 | 5.6 | 2.87 |  |  |  |  |  |  | 
3 | CS(=O)(=O)N1CCC2(CC1)CSC1=C(O2)c2ccccc2C(=O)C1=O [Compound 75, 1′-(methylsulfonyl)spiro[naphtho[1,2-b][1,4]oxathiine-2,4′-piperidine]-5,6-dione] | 4.45 | 2.93 | 19.4 | 4.02 | 9.56 | 2.1 | 7.82 |  |  |  |  |  |  | 
4 | Cc1cc(C(=O)N2CCC3(CC2)CSC2=C(O3)c3ccccc3C(=O)C2=O)c(C)o1 [Compound 41, 1′-(2,5-dimethyl-3-furoyl)spiro[naphtho[1,2-b][1,4]oxathiine-2,4′-piperidine]-5,6-dione] | 1.58 | 1.44 | 4.84 | 1.47 | 5.8 | 3.7 | 3.1 |  |  |  |  |  |  | 
5 | O=C1C(=O)c2ccccc2C2=C1SCC1(CCN(CC(O)COCc3ccco3)CC1)O2 (stereo not drawn) [Compound 165, 1′-[3-(2-furylmethoxy)-2-hydroxypropyl]spiro[naphtho[2-b][1,4]oxathiine-2,4′-piperidine]-5,6-dione] | 1.92 | 2.31 | 6.73 | 1.44 | 4.71 | 2.5 | 3.08 |  |  |  |  |  |  | 
6 | Cc1cc(C(=O)N2CCC3(CC2)CSC2=C(O3)c3ccccc3C(=O)C2=O)nn1C [Compound 45, 1′-[(1,5-dimethyl-1H-pyrazol-3-yl)carbonyl]spiro[naphtho[1,2-b][1,4]oxathiine-2,4′-piperidine]-5,6-dione] | 4 | 3.95 | 19.7 | 4.49 | 9.84 | 2.5 | 4.3 |  |  |  |  |  |  | 
7 | CCCCCCCCCCN1CCC2(CC1)CSC1=C(O2)c2ccccc2C(=O)C1=O [Compound 128, 1′-decylspiro[naphtho[1,2-b][1,4]oxathiine-2,4′-piperidine]-5,6-dione] | 16.9 | 21 | 42.8 | 9.22 | 40.8 | 2.4 | 7.41 |  |  |  |  |  |  | 
8 | O=C1C(=O)c2ccccc2C2=C1SCC1(CCN(C3C=CCCC3)CC1)O2 (stereo not drawn) [Compound 135, 1′-cyclohex-2-en-1-ylspiro[naphtho[1,2-b][1,4]oxathiine-2,4′-piperidine]-5,6-dione] | 4.89 | 4.02 | 19.2 | 7.42 | 8.35 | 1.7 | 5.07 |  |  |  |  |  |  | 
9 | Cc1cccc(CN2CCC3(CC2)CSC2=C(O3)c3ccccc3C(=O)C2=O)c1 [Compound 133, 1′-(3-methylbenzyl)spiro[naphtho[1,2-b][1,4]oxathiine-2,4′-piperidine]-5,6-dione] | 13.1 | 15 | 73 | 12.5 | 29.6 | 2.3 | 12.9 |  |  |  |  |  |  | 
10 | C=CC(C)(O)CN1CCC2(CC1)CSC1=C(O2)c2ccccc2C(=O)C1=O (stereo not drawn) [Compound 159, 1′-(2-hydroxy-2-methylbut-3-en-1-yl)spiro[naphtho[1,2-b][1,4]oxathiine-2,4′-piperidine]-5,6-dione] | 4.47 | 4.13 | 14.3 | 4.03 | 10.2 | 2.3 | 5.03 |  |  |  |  |  |  | 
11 | CC(C)COCC(O)CN1CCC2(CC1)CSC1=C(O2)c2ccccc2C(=O)C1=O (stereo not drawn) [Compound 174, 1′-(2-hydroxy-3-isobutoxypropyl)spiro[naphtho[1,2-b][1,4]oxathiine-2,4′-piperidine]-5,6-dione] | 1.3 | 1.61 | 6.29 | 1.25 | 3.2 | 2.5 | 1.55 |  |  |  |  |  |  | 
12 | CC(C)CCN1CCC2(CC1)CSC1=C(O2)c2ccccc2C(=O)C1=O [Compound 132, 1′-(3-methylbutyl)spiro[naphtho[1,2-b][1,4]oxathiine-2,4′-piperidine]-5,6-dione] | 1.53 | 2.86 | 6.62 | 1.94 | 9.74 | 6.4 | 4.05 |  |  |  |  |  |  | 
13 | O=C1C(=O)c2ccccc2C2=C1SCC1(CCN(CC(O)COc3ccccc3Cl)CC1)O2 (stereo not drawn) [Compound 172, 1′-[3-(2-chlorophenoxy)-2-hydroxypropyl]spiro[naphtho[1,2-b][1,4]oxathiine-2,4′-piperidine]-5,6-dione] | 1.36 | 1.48 | 6.16 | 1.09 | 5.53 | 4.1 | 1.55 |  |  |  |  |  |  | 
14 | C=COC(=O)N1CCC2(CC1)CSC1=C(O2)c2ccccc2C(=O)C1=O [Compound 94, vinyl 5,6-dioxo-5,6-dihydro-1′H-spiro[naphtho[1,2-b][1,4]oxathiine-2,4′-piperidine]-1′-carboxylate] | 2.41 | 2.49 | 8.52 | 2.81 | 9.48 | 3.9 | 3.69 |  |  |  |  |  |  | 
15 | O=C1C(=O)c2ccccc2C2=C1SCC1(CCN(C(=O)c3cc4ccccc4s3)CC1)O2 [Compound 51, 1′-(1-benzothien-2-ylcarbonyl)spiro[naphtho[1,2-b][1,4]oxathiine-2,4′-piperidine]-5,6-dione] | 11.6 | 10.3 | > 100 | 4.28 | 33 | 2.8 | 5.52 |  |  |  |  |  |  | 
16 | O=C1C(=O)c2ccccc2C2=C1SCC1(CCN(Cc3ccc(F)c(Cl)c3)CC1)O2 [Compound 142, 1′-(3-chloro-4-fluorobenzyl)spiro[naphtho[1,2-b][1,4]oxathiine-2,4′-piperidine]-5,6-dione] | 4.25 | 8.72 | 44.2 | 10.5 | 15.1 | 3.6 | 6.93 |  |  |  |  |  |  | 
17 | O=C1C(=O)c2ccccc2C2=C1SCC1(CCN(Cc3ccccc3F)CC1)O2 [Compound 118, 1′-(2-fluorobenzyl)spiro[naphtho[1,2-b][1,4]oxathiine-2,4′-piperidine]-5,6-dione] | 2.42 | 3.85 | 10.1 | 2.27 | 8.3 | 3.4 | 5.02 |  |  |  |  |  |  | 
18 | Cc1ccc(OC(=O)N2CCC3(CC2)CSC2=C(O3)c3ccccc3C(=O)C2=O)cn1 [Compound 111, 6-methyllpyridin-3-yl 5,6-dioxo-5,6-dihydro-1′H-spiro[naphtho[1,2-b][1,4]oxathiine-2,4′-piperidine]-1′-carboxylate] |  |  |  |  |  |  |  | 1.52 | 2.01 | 4.63 | 1.7 | 3.1 | 4.78 | 4.1
19 | Cc1cccc(C(=O)N2CCC3(CC2)CSC2=C(O3)c3ccccc3C(=O)C2=O)c1 [Compound 60, 1′-(3-methylbenzoyl)spiro[naphtho[1,2-b][1,4]oxathiine-2,4′-piperidine]-5,6-dione] | 2.21 | 3.38 | 8.59 | 2.39 | 10.5 | 4.8 | 4.16 |  |  |  |  |  |  | 
20 | O=C1C(=O)c2ccccc2C2=C1SCC1(CCN(c3cnccn3)CC1)O2 [Compound 229, 1′-pyrazin-2-ylspiro[naphtho[1,2-b][1,4]oxathiine-2,4′-piperidine]-5,6-dione] | 4.27 | 4.14 | 22.6 | 4.33 | 12.8 | 3.0 | 4.63 |  |  |  |  |  |  | 
21 | O=C1C(=O)c2ccccc2C2=C1SCC1(CCN(C(=O)Nc3ccc(Cl)c(Cl)c3)CC1)O2 [Compound 87, N-(3,4-dichlorophenyl)-5,6-dioxo-5,6-dihydro-1′H-spiro[naphtho[1,2-b][1,4]oxathiine-2,4′-piperidine]-1′-carboxamide] | 3.04 | 3.11 | 3.31 | 1.34 | 30.5 | 10.0 | 0.888 |  |  |  |  |  |  | 
